Experiments:
rTg4510 mice = experiment: Open Field (OF) test, locomotor activity in rTg4510 mouse model of Alzheimer's Disease (Example 2; DS = DS-C); assay type: in vivo; conditions: Week 31; for Locomotor activity totals, % vs Wild-type / Locomotor activity totals, % vs rTg4510 / Locomotor activity totals, Mean: Risperidone 0.125 mg/kg i.p.
Description: The aim of this study was to evaluate the efficacy of the present drug substance to modulate the agitation-like behaviours in the rTg4510 regulatable mouse model of Alzheimer's Disease (AD). Animals were tested in a behavioural assay, the Open Field (OF) test to measure locomotor activity (LMA). Activity was first assessed at a 21-week-old baseline to determine whether a hyperactive phenotype (to be used as a proxy for agitation) had developed and was further assessed at 2 subsequent ages in acute and chronic efficacy phases.
Ninety male rTg4510 (CC) mice and 15 wild-type (WW) (Tg(Camk2a-tTA)1Mmay Fgf14^Tg(tetO-MAPT*P301L)4510Kha/J, Jax strain #024854, licensed from the Mayo Clinic, USA) were split into 2 cohorts, 4 weeks apart in age; cohort 1 contained 53 mice (8 WW and 45 CC) and cohort 2 contained 52 mice (7 WW and 45 CC). Relative humidity was 55±15% throughout. Mice were housed in individually ventilated cages on a 12 h/12 h light/dark cycle (lights on at 07.00 h; illumination by red light during the dark phase), at an ambient temperature of 24±4° C. with free access to standard rodent maintenance diet and filtered water. Animals were allowed to acclimatise to the above conditions for 7-10 days prior to the study start. All housing groupings were preserved until the mice were approximately 5 months old, at which point they were singly housed.
Doxycycline administration: a subset of animals in cohort 2 (n=15) was administered 2× daily oral bolus doses of doxycycline hyclate (10 mg/kg p.o. in 5% glucose, Sigma Aldrich) at 13 weeks of age, followed by continuous exposure to normal lab chow containing 200 ppm doxycycline (Envigo Teklad 2018 TD.00502 no colourants, irradiated and vacuum-packed). All other animals received Envigo Teklad 2018 diet. All diet was provided ad libitum.
Following this regime, animals were evaluated in Open Field (OF) test, before being deeply anaesthetised at the end of the behavioural testing prior to biofluid sampling and tissue harvesting.
Specifically, the material was solubilised by the addition of 50 μL of 10% glacial acetic acid and making up to volume with 0.9% saline (Aquapharm, Animal Care, York, UK, Lot 21030311).
Drug Substance (DS): (i.e., DS-C, See Table B in Example 1) Dosing volume was 10 mL/kg and DS was formulated at the 150 mg/kg dose in a vehicle of ethanol: Kolliphor HS15: 0.9% saline (1:12:87, w/w/v) which were stored at room temperature and added at approximately 60° C. to form solutions which were subsequently stable at room temperature. All dosing formulations were protected from light whenever possible. Dosing solutions were made fresh on the day of dosing, with lower dose formulations being prepared by dilution from the 150 mg/kg dosing solution at room temperature.
Locomotor activity was assessed by OF test in the light phase of the light-dark cycle at weeks 21, 26 and 31. An automated beam break apparatus (40 cages) was used for the assessment of locomotor activity in rats and mice. Each cage had 4 beams; 1 ‘y’ and 3 ‘x’ which triggered a signal through capacitors when the beam was broken. Signals were collected by data loggers and processed accordingly. All animals were placed in the apparatus and spontaneous activity was assessed for a four-hour period between 0900 and 1300. Animals were then removed from the apparatus and returned to their home cages. LMA assessment was split over 2 consecutive days at each time point.
For locomotor data, a log (x+1) transformation was used. For weeks 21 & 26, means and SEMs were calculated from the transformed data. Analysis was by Friedman's two-way nonparametric ANOVA with treatment and test day as factors to compare each group to the WW animals, and (where appropriate) Doxycycline with the untreated rTg4510 group. For week 30, data excluding the WW and Doxycycline groups for each time period were analysed by robust regression model using M estimation, Huber weighting, using the default parameter c=1.345. […]

rat VPA model = experiment: Direct social interaction and social play P30 in rat VPA model (Example 5; DS = DS-E); assay type: in vivo
Description: Time-mated female Wistar rats were administered a single dose of valproic acid (VPA, 600 mg/kg, i.p.) on gestational day 12.5. Male offspring were delivered and confirmation of the VPA induced developmental deficit was rapidly achieved by examination of characteristic “tail kinks” in the juvenile animals. The timeline of experiments is outlined in FIG. 8 and animals were randomly allocated to treatment groups (Table O).
Control animals were administered sterile saline (0.9% w/v, i.p.) in utero and the vehicle control (ethanol: Kolliphor HS15: saline (1:1:18, v/v/v), i.p.
At postnatal day 30 and following 8 days treatment with the test compounds, animals were evaluated for juvenile play behavior. […] Animals were first allowed to individually explore the arena for 10-minute acclimatization trial (P29) and 24 hours later evaluated for social play (P30). On day of evaluation animals were scored for play activity measured by pinning (latency to, total duration and frequency), mounting (latency to, total duration and frequency) and latency, frequency and duration of social play behavior (following or approaching test partner, sniffing or social grooming). […]
All data was assessed for outliers (ROUT; Prism V9.02) and then normality using D'Agostino and Pearson normality test for n=8, or Shapiro-Wilks test for n<8 or unequal groups. […]

Structure (SMILES): Cc1nc2n(c(=O)c1CCN1CCC(c3noc4cc(F)ccc34)CC1)CCCC2 [Risperidone]
- Locomotor activity totals, % vs Wild-type (rTg4510 mice; 0-30 minutes): 95.7%
- Locomotor activity totals, % vs rTg4510 (rTg4510 mice; 0-30 minutes): 40.1%
- Locomotor activity totals, Mean (rTg4510 mice; 0-30 minutes): 525.99
- Locomotor activity totals, % vs Wild-type (rTg4510 mice; 0-60 minutes): 135.0%
- Locomotor activity totals, % vs rTg4510 (rTg4510 mice; 0-60 minutes): 49.4%
- Locomotor activity totals, Mean (rTg4510 mice; 0-60 minutes): 1313.59
- hyperlocomotion vs rTg4510(vehicle) (rTg4510 mice; 0-60 minutes, risperidone 0.125 mg/kg/d): significantly reversed
- Locomotor activity totals, % vs Wild-type (rTg4510 mice; 30-60 minutes): 183.6%
- Locomotor activity totals, % vs rTg4510 (rTg4510 mice; 30-60 minutes): 46.9%
- Locomotor activity totals, Mean (rTg4510 mice; 30-60 minutes): 641.92
- Locomotor activity totals, % vs Wild-type (rTg4510 mice; 60-90 minutes): 104.9%
- Locomotor activity totals, % vs rTg4510 (rTg4510 mice; 60-90 minutes): 24.1%
- Locomotor activity totals, Mean (rTg4510 mice; 60-90 minutes): 140.56
- Locomotor activity totals, % vs Wild-type (rTg4510 mice; 60-120 minutes): 134.8%
- Locomotor activity totals, % vs rTg4510 (rTg4510 mice; 60-120 minutes): 39.8%
- Locomotor activity totals, Mean (rTg4510 mice; 60-120 minutes): 384.49
- Locomotor activity totals, % vs Wild-type (rTg4510 mice; 90-120 minutes): 241.3%
- Locomotor activity totals, % vs rTg4510 (rTg4510 mice; 90-120 minutes): 79.0%
- Locomotor activity totals, Mean (rTg4510 mice; 90-120 minutes): 132.22
- Locomotor activity totals, % vs Wild-type (rTg4510 mice; 120-150 minutes): 222.8%
- Locomotor activity totals, % vs rTg4510 (rTg4510 mice; 120-150 minutes): 130.5%
- Locomotor activity totals, Mean (rTg4510 mice; 120-150 minutes): 210.31
- Locomotor activity totals, % vs Wild-type (rTg4510 mice; 150-180 minutes): 399.5%
- Locomotor activity totals, % vs rTg4510 (rTg4510 mice; 150-180 minutes): 103.1%
- Locomotor activity totals, Mean (rTg4510 mice; 150-180 minutes): 82.39
- Locomotor activity totals, % vs Wild-type (rTg4510 mice; 180-210 minutes): 136.3%
- Locomotor activity totals, % vs rTg4510 (rTg4510 mice; 180-210 minutes): 103.4%
- Locomotor activity totals, Mean (rTg4510 mice; 180-210 minutes): 27.84
- Locomotor activity totals, % vs Wild-type (rTg4510 mice; 210-240 minutes): 37.5%
- Locomotor activity totals, % vs rTg4510 (rTg4510 mice; 210-240 minutes): 56.3%
- Locomotor activity totals, Mean (rTg4510 mice; 210-240 minutes): 6.99
- Social duration and frequency behaviours (rat VPA model; juvenile P30, risperidone 0.125 mg/kg): no effect
- any measure of play or social interaction (rat VPA model; juvenile animals, Risperidone 0.125 mg/kg): without effect

Reference: patent US20260144805A1, “CANNABIDIOL COMPOSITIONS FOR USE IN THE TREATMENT OF NEURODEGENERATIVE AND NEUROLOGICAL DISORDERS” (JAZZ PHARMACEUTICALS RESEARCH UK LIMITED, priority 2022, published 2026)
